Literature values in patent publication US6509043B1, “Composition comprising soy protein, dietary fibres and a phytoestrogen compound and use thereof in the prevention and/or treatment of pulmonary diseases” (Nutri Pharma ASA, priority 2001, dated 2003).

System: estrogenic effect
Conditions: in vitro; reported by Knight (Maturitas 22, 167-175 (1995))

For `O=c1c(-c2ccc(O)cc2)coc2cc(O)ccc12` [daidzein], the “relative estrogenic potency as compared to estradiol (relative potency of 100)” value is listed as 0.013.
